Tests used:
[1] = target: KRAS G12C protein (Homo sapiens, UniProt P01116, G12C); assay: Nucleotide exchange assay, Method III (TR-FRET, association of KRAS G12C with Raf-RBD, SOS1-mediated exchange); type: biochemical; settings: overnight (18 hr) incubation with GDP-bound KRAS G12C
In short: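 Compounds in 11-point 3-fold dilutions were preincubated 18 h at 23 °C with GDP-bound His-tagged KRAS G12C (25 nM in the 2× mix). SOS1/GTP was then added for 1 h at 23 °C, followed by FLAG-Raf-RBD with Tb-anti-FLAG/D2-anti-His for 2 h at room temperature. IC50 values came from non-linear regression of the TR-FRET signal.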

[2] = system: A549; assay: Cell proliferation assay panel (Cell Titer-Glo), A549; type: cell-based; settings: Homo sapiens, 72 hr
Description: (§1) Potency of compounds was determined in cell proliferation assays in a panel of cancer cell lines. Cells were seeded in 384-well plates (Corning, Cat. #3765) at specified densities in 40 μL of culture medium and incubated overnight at 37° C. in a 5% CO2 incubator (culture conditions). With a robotic dispenser, serially diluted test compounds were added in a volume of 20 nL DMSO to wells in the culture plate to achieve the final desired concentrations of test compounds, and the cells were further incubated in culture conditions for 72 hr. The assay was terminated by addition of 25 μL of Cell Titer-Glo reagent (Promega, Madison, Wis.) to each well. Contents were mixed, the plate was incubated for 10 min at room temperature and luminescence was measured. The IC50 value of each test compound was calculated with XLFit curve fitting software. Results are shown in Table 4. ‘+++’ indicates IC50 values ≤300 nM, ‘++’ indicates IC50 values between 300 nM-3 μM, and ‘+’ indicates IC50 values ≥3 μM.

[3] = system: KYSE-410; assay: Cell proliferation assay panel (Cell Titer-Glo), KYSE-410; type: cell-based; settings: Homo sapiens, 72 hr
Description: as §1

[4] = system: MIA PaCa-2; assay: Cell proliferation assay panel (Cell Titer-Glo), MIA PaCa-2; type: cell-based; settings: Homo sapiens, MIA PaCa-2, 72 h
Description: as §1

[5] = system: NCI-H2122; assay: Cell proliferation assay panel (Cell Titer-Glo), NCI-H2122; type: cell-based; settings: Homo sapiens, 72 hr
Description: as §1

[6] = system: NCI-H358; assay: Cell proliferation assay panel (Cell Titer-Glo), NCI-H358; type: cell-based; settings: Homo sapiens, 72 hr
Description: as §1

[7] = system: NCI-H1373; assay: Cell proliferation assay panel (Cell Titer-Glo), NCI-H1373; type: cell-based; settings: Homo sapiens, 72 hr
Description: as §1

[8] = system: NCI-H2030; assay: Cell proliferation assay panel (Cell Titer-Glo), NCI-H2030; type: cell-based; settings: Homo sapiens, 72 hr
Description: as §1

[9] = system: SW1573; assay: Cell proliferation assay panel (Cell Titer-Glo), SW1573; type: cell-based; settings: Homo sapiens, 72 hr
Description: as §1

[10] = system: NCI-H358 cells; assay: 3D cell proliferation assay (Cell Titer-Glo 3D); type: cell-based; settings: Homo sapiens, NCI-H358, 168 h, NCI-H358, 3D (ultra-low attachment); 7 days
Description: NCI-H358 cells (ATCC® CRL-5807™) were plated in a 384-well Black/Clear Round Bottom Ultra-Low Attachment Microplate (Corning) in medium (RPMI-1640+10% FBS) at a density of 1000 cells in 50 μL per well, then incubated overnight at 37° C. and 5% CO2. Cells were treated with test compounds at 9 concentrations within a specified concentration range (e.g., 0.5 nM-10 μM) for generation of dose response curves. Test compounds were prepared by 1:3 serial dilution in DMSO from a specified starting concentration (e.g., 20 μM, 2 μM or 0.2 μM) and then added to wells of the assay plate in a total volume of 150 nL DMSO. The cells were further incubated at 37° C. and 5% CO2 for 7 days. Cell viability was assessed by adding 40 μL of Cell Titer-Glo® 3D reagent (Cat. No.: G9683, Promega) to each well and reading luminescence after mixing and incubation of the samples. The IC50 value of each test compound was calculated with XLFit curve fitting software.

[11] = system: Phosphorylation of ERK in NCI-H358 cells; assay: pERK assay, Method II (homogeneous TR-FRET, phospho-ERK Thr202/Tyr204); type: cell-based; settings: Homo sapiens, 4 hr compound treatment
Description: Method II. Phosphorylation of ERK was assessed by a homogeneous TR-FRET assay (Advanced phospho-ERK (Thr202/Tyr204) cellular kit; Cat. #64AERPEH, Cisbio). In brief, NCI-H358 cells were seeded in a 384-well culture plate at a density of 6000 cells in 40 μL medium/well and grown overnight at 37° C. and 5% CO2. Each test compound was dosed in duplicate in a 10-dose 3-fold titration starting at 10 μM or 2 μM. The culture plate was then incubated for 4 hr in the incubator. At the end of the compound treatment, the medium was removed, 35 μL of lysis buffer was added to each well, and the plate was agitated on a plate shaker for 40 mins at 4° C. An antibody cocktail of phospho-ERK1/2 Eu Cryptate antibody and Phospho-ERK1/2 d2 antibody was prepared by separately diluting the antibodies 20-fold with detection buffer and then mixing them together. 3.4 μL of antibody cocktail was dispensed to each well of an empty 384-well white ProxiPlus assay plate (Perkin Elmer), and the plate briefly centrifuged. 13.6 μL of cell lysate was then added to the antibody-containing wells, and the plate was briefly centrifuged and then incubated 2 hr at room temperature. The plate was read on a fluorescence plate reader (Envision2104, Perkin Elmer), with an excitation wavelength of 337 nm and emission wavelengths of 615 nm and 665 nm. The IC50 value of each test compound was calculated with XLFit curve fitting software. Results are shown in Table 6. ‘+++’ indicates IC50 values ≤300 nM, ‘++’ indicates IC50 values between 300 nM-3 μM, and ‘+’ indicates IC50 values ≥3 μM.

Chain of KRAS G12C protein (P01116 1-188 isoform P01116-2 G12C): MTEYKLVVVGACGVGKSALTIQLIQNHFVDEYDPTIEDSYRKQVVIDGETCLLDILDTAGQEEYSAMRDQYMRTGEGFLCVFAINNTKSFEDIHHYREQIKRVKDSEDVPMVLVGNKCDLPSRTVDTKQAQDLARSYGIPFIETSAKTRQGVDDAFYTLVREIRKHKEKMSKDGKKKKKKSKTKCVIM

SMILES: C=CC(=O)N1CCN(c2c(S(C)(=O)=O)c(=O)n(-c3c(C)ccnc3C(C)C)c3nc(-c4c(O)cccc4F)c(F)cc23)CC1 (single isomer, unassigned) [123 (Isomer A), 4-(4-acryloylpiperazin-1-yl)-6-fluoro-7-(2-fluoro-6-hydroxyphenyl)-1-(2-isopropyl-4-methylpyridin-3-yl)-3-(methylsulfonyl)-1,8-naphthyridin-2(1H)-one]
- IC50 [1]: ≤ 0.3 µM
- IC50 [2]: ≥ 3 µM
- IC50 [3]: ≥ 3 µM
- IC50 [4]: 0.3 to 3 µM
- IC50 [5]: 0.3 to 3 µM
- IC50 [6]: ≤ 0.3 µM
- IC50 [7]: ≥ 3 µM
- IC50 [8]: 0.3 to 3 µM
- IC50 [9]: ≥ 3 µM
- IC50 [10]: ≤ 0.1 µM
- IC50 [11]: ≤ 0.3 µM
